Source: patent US7338932B2, “Methods of modulating functions of polypeptide GalNAc-transferases and of screening test substances to find agents herefor, pharmaceutical compositions comprising such agents and the use of such agents for preparing medicaments” (Glycozym APS, priority 2000, dated 2008)

Molecular target: T1, GalNAc-T4 lectin domain (T4ld) (Homo sapiens, UniProt Q8N4A0)
T1 construct: made in house; host or cells: High Five insect cells (baculovirus, pAcGP67-A)
Assay: Direct binding ELISA to GalNAc-MUC1 glycopeptide, competitive inhibition, T4ld
Protocol: Protein biotinylation was made as previously reported^62. The pH of 1 ml purified protein (0.3 mg/ml) in PBS was adjusted to pH 9 with 1 M NaOH and 40 μl N-hydroxy-succinimidobiotin (Sigma) dissolved in DMF (10 mg/ml) was added. The solution was mixed end-over-end for 2 hours at room temperature, and dialyzed three times against PBS and an equal volume of glycerol was added. The biotinylated proteins were stored at −20° C. in 50% glycerol until use.
Direct binding ELISA assay was developed as follows: Polystyrene microtiter plates (Maxisorb, Nunc, Denmark) were coated with peptides or enzymatically glycosylated glycopeptides in PBS overnight at 4° C. Plates were washed and blocked with 0.1% Tween20 and 0.2% BSA in PBS for 1 h at room temperature, followed by incubation with biotinylated proteins in PBS with 0.05% Tween20 for 2 h at room temperature. After four washes with PBS, plates were incubated with 1:2,000 dilution streptavidin-HRP (Sigma) in PBS for 30 min at room temperature and washed four times with PBS. Development was performed with 0.5 mg/ml o-phenylenediamine and 0.02% H2O2 at room temperature for 15 min, and reaction stopped by adding 100 μl/well of 0.5 N H2SO4. Competitive inhibition assays were done at end-point titers of GalNAc-transferase proteins with one hour preincubations with inhibitor.
In binding studies using lectins without biotinylation antibodies to the HIS-tag and the T7-tag, or in some experiments antibodies raised to GalNAc-T2 and -T4 enzymes were used to detect binding.

T1 sequence (Q8N4A0 405-578): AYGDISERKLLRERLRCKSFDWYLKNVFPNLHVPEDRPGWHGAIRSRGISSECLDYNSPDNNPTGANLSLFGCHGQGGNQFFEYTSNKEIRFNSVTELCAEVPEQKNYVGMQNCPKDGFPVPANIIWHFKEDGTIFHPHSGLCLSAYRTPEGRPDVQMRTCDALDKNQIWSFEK

**Q.** With `CC(=O)N[C@H]1[C@@H](OCc2ccccc2)O[C@H](CO)[C@@H](O)[C@@H]1O` [GlcNAcα-benzyl] as the compound, how does the IC50 read?
**A.** > 100 mM
